Experimental data as given in patent US20070117743A1, “New antitumoral compounds” (priority 2003, published 2007).

Legend:
Format in all cases: cell-based, human
SK-BR-3 = experiment: SRB colorimetric assay of cell growth and viability, SK-BR-3; conditions: 48 hours exposure
HeLa = experiment: SRB colorimetric assay of cell growth and viability, HeLa; conditions: 48 hours exposure; for CC50: read-out: LC50 HELA
DU-145 = experiment: SRB colorimetric assay of cell growth and viability, DU-145; conditions: 48 hours exposure
LoVo = experiment: SRB colorimetric assay of cell growth and viability, LoVo; conditions: 48 hours exposure; for CC50: read-out: LC50 LOVO
LNCaP = experiment: SRB colorimetric assay of cell growth and viability, LNCaP; conditions: 48 hours exposure; for GI50: read-out: GI50 LN-caP; for CC50: read-out: LC50 LN-caP
IGROV-ET = experiment: SRB colorimetric assay of cell growth and viability, IGROV-ET; conditions: 48 hours exposure; for CC50: read-out: LC50 IGROV-ET
IGROV-1 = experiment: SRB colorimetric assay of cell growth and viability, IGROV-1; conditions: 48 hours exposure
HT-29 = experiment: SRB colorimetric assay of cell growth and viability, HT-29; conditions: 48 hours exposure; for GI50: read-out: GI50 HT-29; for CC50: read-out: LC50 HT-29
K-562 = experiment: SRB colorimetric assay of cell growth and viability, K-562; conditions: 48 hours exposure; for CC50: read-out: LC50 K-562
HeLa-APL = experiment: SRB colorimetric assay of cell growth and viability, HeLa-APL; conditions: 48 hours exposure; for CC50: read-out: LC50 HELA-APL
A-549 = experiment: SRB colorimetric assay of cell growth and viability, A-549; conditions: 48 hours exposure; for GI50: read-out: GI50 A-549; for CC50: read-out: LC50 A-549
PANC-1 = experiment: SRB colorimetric assay of cell growth and viability, PANC-1; conditions: 48 hours exposure; for CC50: read-out: LC50 PANC-1
SK-MEL-28 = experiment: SRB colorimetric assay of cell growth and viability, SK-MEL-28; conditions: 48 hours exposure; for CC50: read-out: LC50 MEL-28
LoVo-Dox = experiment: SRB colorimetric assay of cell growth and viability, LoVo-Dox; conditions: 48 hours exposure; for CC50: read-out: LC50 LOVO-DOX
Method in brief: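 Absorbance at 490 nm of Tris-solubilized sulforhodamine B gives the read-out after cells are fixed with cold 50% TCA for 60 min at 4° C. Compound exposure lasts 48 hours over 10 to 10^−8 μg/mL. Growth inhibition, total growth inhibition and lethal concentration are calculated from triplicate wells.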

## C/C=C1\NC(=O)[C@H](Cc2ccccc2)NC(=O)[C@@H](C(C)C)NC(=O)[C@@H]([C@@H](C)CC)NC(=O)[C@H](NC(=O)[C@H](NC(=O)[C@H](CCCN)NC(=O)[C@H]2CCCN2C(=O)[C@H](NC(=O)[C@@H](NC(=O)[C@H](NC(=O)[C@H](NC(=O)CCCC(C)C)C(C)C)[C@H](C)O)C(C)C)C(C)C)[C@@H](C)CC)[C@@H](C)OC(=O)[C@H](C(C)C)NC1=O [Compound 7, [D-Thr^12]-KF]
SK-BR-3
  GI50: ≥ 6.77 µM
  LC50: ≥ 6.77 µM
  TGI SK-BR-3: 6.77E−06 Molar
HeLa
  GI50: ≥ 6.77 µM
  TGI HELA: 6.77E−06 Molar
  CC50: ≥ 6.77 µM
DU-145
  GI50: ≥ 6.77 µM
  LC50 (concentration causing 50% net cell kill): ≥ 6.77 µM
  TGI DU-145: 6.77E−06 Molar
LoVo
  GI50: ≥ 6.77 µM
  TGI LOVO: 6.77E−06 Molar
  CC50: ≥ 6.77 µM
LNCaP
  TGI LN-caP: 6.77E−06 Molar
  GI50: 6.04 µM
  CC50: ≥ 6.77 µM
IGROV-ET
  GI50: ≥ 6.77 µM
  TGI IGROV-ET: 6.77E−06 Molar
  CC50: ≥ 6.77 µM
IGROV-1
  GI50: ≥ 6.77 µM
  LC50 (concentration causing 50% net cell killing): ≥ 6.77 µM
  TGI IGROV: 6.77E−06 Molar
HT-29
  TGI HT-29: 6.77E−06 Molar
  GI50: ≥ 6.77 µM
  CC50: ≥ 6.77 µM
K-562
  GI50: ≥ 6.77 µM
  TGI K-562: 6.77E−06 Molar
  CC50: ≥ 6.77 µM
HeLa-APL
  GI50: ≥ 6.77 µM
  TGI HELA-APL: 6.77E−06 Molar
  CC50: ≥ 6.77 µM
A-549
  TGI A-549: 6.77E−06 Molar
  GI50: ≥ 6.77 µM
  CC50: ≥ 6.77 µM
PANC-1
  GI50: ≥ 6.77 µM
  TGI PANC-1: 6.77E−06 Molar
  CC50: ≥ 6.77 µM
SK-MEL-28
  GI50: ≥ 6.77 µM
  TGI MEL-28: 6.77E−06 Molar
  CC50: ≥ 6.77 µM
LoVo-Dox
  GI50: 5.14 µM
  TGI LOVO-DOX: 6.77E−06 Molar
  CC50: ≥ 6.77 µM

## C/C=C1\NC(=O)[C@H](Cc2ccccc2)NC(=O)[C@@H](C(C)C)NC(=O)[C@@H]([C@@H](C)CC)NC(=O)[C@H](NC(=O)[C@H](NC(=O)[C@H](CCCN)NC(=O)[C@H]2CCCN2C(=O)[C@H](NC(=O)[C@@H](NC(=O)[C@@H](NC(=O)[C@@H](CC2CCCCC2)NC(=O)CCCC(C)C)[C@@H](C)O)C(C)C)C(C)C)[C@@H](C)CC)[C@@H](C)OC(=O)[C@H](C(C)C)NC1=O [Compound 8, [D-Cha^13]-KF]
SK-BR-3
  GI50: 0.484 µM
  LC50: 3.17 µM
  TGI SK-BR-3: 1.25E−06 Molar
HeLa
  GI50: 1.4 µM
  TGI HELA: 2.30E−06 Molar
  CC50: 3.8 µM
DU-145
  GI50: 1.33 µM
  LC50 (concentration causing 50% net cell kill): 4.26 µM
  TGI DU-145: 2.38E−06 Molar
LoVo
  GI50: 1.01 µM
  TGI LOVO: 1.96E−06 Molar
  CC50: 3.82 µM
LNCaP
  TGI LN-caP: 6.53E−06 Molar
  GI50: 2.79 µM
  CC50: 6.53 µM
IGROV-ET
  GI50: 0.652 µM
  TGI IGROV-ET: 1.44E−06 Molar
  CC50: 3.16 µM
IGROV-1
  GI50: 1.04 µM
  LC50 (concentration causing 50% net cell killing): 4.29 µM
  TGI IGROV: 2.11E−06 Molar
HT-29
  TGI HT-29: 1.99E−06 Molar
  GI50: 0.992 µM
  CC50: 3.99 µM
K-562
  GI50: 1.93 µM
  TGI K-562: 4.92E−06 Molar
  CC50: 6.53 µM
HeLa-APL
  GI50: 1.7 µM
  TGI HELA-APL: 2.87E−06 Molar
  CC50: 4.86 µM
A-549
  TGI A-549: 4.18E−06 Molar
  GI50: 1.97 µM
  CC50: 6.53 µM
PANC-1
  GI50: 6.53 µM
  TGI PANC-1: 6.53E−06 Molar
  CC50: 6.53 µM
SK-MEL-28
  GI50: 1.45 µM
  TGI MEL-28: 2.42E−06 Molar
  CC50: 4.02 µM
LoVo-Dox
  GI50: 0.986 µM
  TGI LOVO-DOX: 2.09E−06 Molar
  CC50: 4.43 µM
